Usually IC50 stands for the concentration that inhibits the measured activity by half.

The experiment has as its target T1, CCR2 (Homo sapiens, UniProt P41597).
T1 construct: host or cells: THP-1 human monocytic cells
T1 sequence (P41597 1-360 isoform P41597-2): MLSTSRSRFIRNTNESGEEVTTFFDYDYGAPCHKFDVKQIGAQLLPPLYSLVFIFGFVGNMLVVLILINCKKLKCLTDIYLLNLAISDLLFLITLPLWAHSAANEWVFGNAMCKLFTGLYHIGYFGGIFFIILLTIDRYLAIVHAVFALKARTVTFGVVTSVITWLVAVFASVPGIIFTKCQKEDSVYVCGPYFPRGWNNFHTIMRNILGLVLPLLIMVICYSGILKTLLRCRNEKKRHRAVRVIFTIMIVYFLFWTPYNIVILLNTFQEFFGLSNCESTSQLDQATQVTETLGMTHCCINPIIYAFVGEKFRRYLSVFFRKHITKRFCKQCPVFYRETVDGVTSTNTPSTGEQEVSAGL
The experiment is described as follows: MCP-1 Receptor Binding Assay in THP-1 Cells. To be noted: 0.5 nM 125I labeled MCP-1, 2 hours at 30° C., read-out: Inhibition of MCP-1 Binding IC50 CCR2 Binding. The protocol:
MCP-1 Receptor Binding Assay in THP-1 Cells
Human monocytic cell line THP-1 cells were obtained from American Type Culture Collection (Manassas, Va., USA). […] The cell density was maintained […].
1 μM cold MCP-1 was used for nonspecific binding.

As to `O=C(CNC(=O)c1cccc(C(F)(F)F)c1)NC1CN(C2CCC(c3ccc4c(c3)OCO4)CC2)C1` (single isomer, unassigned) [Example 1a, N-{[1-(4-Benzo[1,3]dioxol-5-yl-cyclohexyl)-azetidin-3-ylcarbamoyl]-methyl}-3-trifluoromethyl-benzamide], the half-inhibitory concentration (IC50) was 1.2 nM.

Consider `O=C(CNC(=O)c1ccccc1)NC1CN(C2CCC(c3ccc4c(c3)OCO4)CC2)C1` (single isomer, unassigned) [Example 2a, N-{[1-(4-Benzo[1,3]dioxol-5-yl-cyclohexyl)-azetidin-3-ylcarbamoyl]-methyl}-benzamide], for which the IC50 came to 390 nM.

Consider `O=C(CNC(=O)c1cccc(C(F)(F)F)c1)NC1CN(C2CCC(c3ccc4c(c3)OCC4)CC2)C1` (single isomer, unassigned) [Example 3a, N-({1-[4-(2,3-Dihydro-benzofuran-6-yl)-cyclohexyl]-azetidin-3-ylcarbamoyl}-methyl)-3-trifluoromethylbenzamide], for which the concentration for half-maximal inhibition (IC50) amounted to 45 nM.

`O=C(CNC(=O)c1cccc(C(F)(F)F)c1)NC1CN(C2CCC(c3ccccc3)CC2)C1` (single isomer, unassigned) [Example 4a, N-{[1-(4-Phenyl-cyclohexyl)-azetidin-3-ylcarbamoyl]-methyl}-3-trifluoromethyl-benzamide]: the IC50 worked out at 33 nM.

On to `O=C(CNC(=O)c1cccc(C(F)(F)F)c1)NC1CN(C2CCC(c3ccc4oc(=O)[nH]c4c3)CC2)C1` (single isomer, unassigned) [Example 5a, N-({1-[4-(2-oxo-2,3-dihydro-benzooxazol-5-yl)-cyclohexyl]-azetidin-3-ylcarbamoyl}-methyl)-3-trifluoromethyl-benzamide], for which the IC50 was 9 nM.

For the molecule `O=C(CNC(=O)c1cccc(C(F)(F)F)c1)NC1CN(C2CCC(c3ccc4sc(=O)[nH]c4c3)CC2)C1` (single isomer, unassigned) [Example 6a, N-({1-[4-(2-Oxo-2,3-dihydro-benzothiazol-5-yl)-cyclohexyl]-azetidin-3-ylcarbamoyl}-methyl)-3-trifluoromethyl-benzamide], the half-inhibitory concentration (IC50) is 200 nM.

`COc1ccc(C2CCC(N3CC(NC(=O)CNC(=O)c4cccc(C(F)(F)F)c4)C3)CC2)cc1` (single isomer, unassigned) [Example 7a, N-({1-[4-(4-Methoxy-phenyl)-cyclohexyl]-azetidin-3-ylcarbamoyl}-methyl)-3-trifluoromethyl-benzamide]: the IC50 was determined as 50 nM.

For the molecule `N#Cc1cccc(C2CCC(N3CC(NC(=O)CNC(=O)c4cccc(C(F)(F)F)c4)C3)CC2)c1` (single isomer, unassigned) [Example 8a, N-({1-[4-(3-Cyano-phenyl)-cyclohexyl]-azetidin-3-ylcarbamoyl}-methyl)-3-trifluoromethyl-benzamide], the IC50 was 85 nM.

Turning to `CCOC(=O)c1cccc(C2CCC(N3CC(NC(=O)CNC(=O)c4cccc(C(F)(F)F)c4)C3)CC2)c1` (single isomer, unassigned) [Example 11a, 3-(4-{3-[2-(3-Trifluoromethyl-benzoylamino)-acetylamino]-azetidin-1-yl}-cyclohexyl)-benzoic acid ethyl ester], the concentration for half-maximal inhibition (IC50) was 135 nM.

Consider `CS(=O)(=O)c1cccc(C2CCC(N3CC(NC(=O)CNC(=O)c4cccc(C(F)(F)F)c4)C3)CC2)c1` (single isomer, unassigned) [Example 14a, N-({1-[4-(3-Methanesulfonyl-phenyl)-cyclohexyl]-azetidin-3-ylcarbamoyl}-methyl)-3-trifluoromethyl-benzamide], for which the IC50 came to 440 nM.

`O=C(CNC(=O)c1cccc(C(F)(F)F)c1)NC1CN(C2CCC(c3ccc4nc[nH]c4c3)CC2)C1` (single isomer, unassigned) [Example 20a, N-({1-[4-(3H-Benzoimidazol-5-yl)-cyclohexyl]-azetidin-3-ylcarbamoyl}-methyl)-3-trifluoromethyl-benzamide]: the half-inhibitory concentration (IC50) stood at 27 nM.

For `N#CCc1ccc(C2CCC(N3CC(NC(=O)CNC(=O)c4cccc(C(F)(F)F)c4)C3)CC2)cc1` (single isomer, unassigned) [Example 21a, N-({1-[4-(4-Cyanomethyl-phenyl)-cyclohexyl]-azetidin-3-ylcarbamoyl}-methyl)-3-trifluoromethyl-benzamide], the IC50 turned out to be 30 nM.

Turning to `CCOC(=O)Cc1ccc(C2CCC(N3CC(NC(=O)CNC(=O)c4cccc(C(F)(F)F)c4)C3)CC2)cc1` (single isomer, unassigned) [Example 24a, [4-(4-{3-[2-(3-Trifluoromethyl-benzoylamino)-acetylamino]-azetidin-1-yl}-cyclohexyl)-phenyl]-acetic acid ethyl ester], the IC50 was 340 nM.

As to `O=C(CNC(=O)c1cccc(C(F)(F)F)c1)NC1CN(C2CCC(O)(c3ccc4c(c3)OCO4)CC2)C1` (single isomer, unassigned) [Example 31a, N-{[1-(4-Benzo[1,3]dioxol-5-yl-4-hydroxy-cyclohexyl)-azetidin-3-ylcarbamoyl]-methyl}-3-trifluoromethyl-benzamide], the half-inhibitory concentration (IC50) is 46 nM.

In the case of `O=C(CNC(=O)c1cccc(C(F)(F)F)c1)NC1CN(C2CCC(O)(c3ccc4c(c3)OCCO4)CC2)C1` (single isomer, unassigned) [Example 32a, N-({1-[4-(2,3-Dihydro-benzo[1,4]dioxin-6-yl)-4-hydroxy-cyclohexyl]-azetidin-3-ylcarbamoyl}-methyl)-3-trifluoromethyl-benzamide], the IC50 amounted to 63 nM.

Turning to `O=C(CNC(=O)c1cccc(C(F)(F)F)c1)NC1CN(C2CCC(O)(c3ccc4c(c3)OCC4)CC2)C1` (single isomer, unassigned) [Example 33a, N-({1-[4-(2,3-Dihydro-benzofuran-6-yl)-4-hydroxy-cyclohexyl]-azetidin-3-ylcarbamoyl}-methyl)-3-trifluoromethyl-benzamide], the IC50 is 25 nM.

As for `O=C(CNC(=O)c1cccc(C(F)(F)F)c1)NC1CN(C2CCC(O)(c3ccc4nc[nH]c4c3)CC2)C1` (single isomer, unassigned) [Example 34a, N-({1-[4-(3H-Benzoimidazol-5-yl)-4-hydroxy-cyclohexyl]-azetidin-3-ylcarbamoyl}-methyl)-3-trifluoromethyl-benzamide], the half-inhibitory concentration (IC50) stood at 310 nM.

Turning to `O=C(CNC(=O)c1cccc(C(F)(F)F)c1)NC1CN(C2CCC(O)(c3ccc4oc(=O)[nH]c4c3)CC2)C1` (single isomer, unassigned) [Example 35a, N-({1-[4-Hydroxy-4-(2-oxo-2,3-dihydro-benzooxazol-5-yl)-cyclohexyl]-azetidin-3-ylcarbamoyl}-methyl)-3-trifluoromethyl-benzamide], the IC50 turned out to be 190 nM.

With `COc1ccc(C2(O)CCC(N3CC(NC(=O)CNC(=O)c4cccc(C(F)(F)F)c4)C3)CC2)cc1` (single isomer, unassigned) [Example 36a, N-({1-[4-Hydroxy-4-(4-methoxy-phenyl)-cyclohexyl]-azetidin-3-ylcarbamoyl}-methyl)-3-trifluoromethyl-benzamide], the concentration for half-maximal inhibition (IC50) was 21 nM.

Consider `COc1cccc(C2(O)CCC(N3CC(NC(=O)CNC(=O)c4cccc(C(F)(F)F)c4)C3)CC2)c1` (single isomer, unassigned) [Example 37a, N-({1-[4-Hydroxy-4-(3-methoxy-phenyl)-cyclohexyl]-azetidin-3-ylcarbamoyl}-methyl)-3-trifluoromethyl-benzamide], for which the IC50 came out at 69 nM.

As for `CSc1cccc(C2(O)CCC(N3CC(NC(=O)CNC(=O)c4cccc(C(F)(F)F)c4)C3)CC2)c1` (single isomer, unassigned) [Example 38a, N-({1-[4-Hydroxy-4-(3-methylsulfanyl-phenyl)-cyclohexyl]-azetidin-3-ylcarbamoyl}-methyl)-3-trifluoromethyl-benzamide], the half-inhibitory concentration (IC50) was found to be 190 nM.

`O=C(CNC(=O)c1cccc(C(F)(F)F)c1)NC1CN(C2CCC(c3ccc(O)cc3)CC2)C1` (single isomer, unassigned) [Example 40a, N-({1-[4-(4-Hydroxy-phenyl)-cyclohexyl]-azetidin-3-ylcarbamoyl}-methyl)-3-trifluoromethyl-benzamide]: the IC50 is 21 nM.

Turning to `O=C(CNC(=O)c1cccc(C(F)(F)F)c1)NC1CN(C2CCC(O)(c3cccc(O)c3)CC2)C1` (single isomer, unassigned) [Example 46a, N-({1-[4-Hydroxy-4-(3-hydroxy-phenyl)-cyclohexyl]-azetidin-3-ylcarbamoyl}-methyl)-3-trifluoromethyl-benzamide], the IC50 was determined as 110 nM.

For the molecule `O=C(CNC(=O)c1cccc(C(F)(F)F)c1)NC1CN(C2CCC(O)(c3ccc(F)cc3)CC2)C1` (single isomer, unassigned) [Example 47a, N-({1-[4-(4-Fluoro-phenyl)-4-hydroxy-cyclohexyl]-azetidin-3-ylcarbamoyl}-methyl)-3-trifluoromethyl-benzamide], the IC50 was found to be 206 nM.

As for `N#Cc1cccc(C2(O)CCC(N3CC(NC(=O)CNC(=O)c4cccc(C(F)(F)F)c4)C3)CC2)c1` (single isomer, unassigned) [Example 48a, N-({1-[4-(3-Cyano-phenyl)-4-hydroxy-cyclohexyl]-azetidin-3-ylcarbamoyl}-methyl)-3-trifluoromethyl-benzamide], the half-inhibitory concentration (IC50) worked out at 413 nM.

Take `C#Cc1cccc(C2(O)CCC(N3CC(NC(=O)CNC(=O)c4cccc(C(F)(F)F)c4)C3)CC2)c1` (single isomer, unassigned) [Example 51a, N-({1-[4-(3-Ethynyl-phenyl)-4-hydroxy-cyclohexyl]-azetidin-3-ylcarbamoyl}-methyl)-3-trifluoromethyl-benzamide]: the half-inhibitory concentration (IC50) is 228 nM.

Values taken from patent US8513229B2, “4-Azetidinyl-1-phenyl-cyclohexane antagonists of CCR2” (Janssen Pharmaceutica NV, priority 2009, dated 2013).
